Assay results: a melting point compilation (Tetko et al.)

Compound | melting point
CCc1ccccc1-n1c(S)nc2ccccc2c1=O | 304 to 306 °C
O=C(CCl)N1CCCCCCC1 | 66 to 68 °C
CC(C(=O)O)c1ccc(S(=O)(=O)N(C)C)cc1 (stereo not given) | 122 to 124 °C
C[C@H](NC(=O)c1cccc([N+](=O)[O-])c1)C(=O)O | 159 to 161 °C
NC(=O)Cc1cccc(O)c1 | 114 to 116 °C
CCCCCn1nc(C(=O)O)c2ccccc2c1=O | 144 to 146 °C
CN(C)C(=O)c1cccc(O)c1 | 126 to 128 °C
O=C(O)c1ccc(Oc2ccc(Br)cc2)c(F)c1 | 251 to 253 °C
N#Cc1csc(C(=O)O)c1 | 224 to 226 °C
COc1ccc(C(=O)Nc2cc(F)ccc2C(=O)O)cc1 | 225 to 227 °C
CC(=O)NC1CCC(N)CC1 (stereo not given) | 129 to 131 °C
CC1Oc2ncccc2NC1=O (stereo not given) | 225 to 227 °C
NNC(=O)c1ccc(COc2ccccc2)cc1 | 148 to 150 °C
CN(C)CCN1CC(C(=O)O)CC1=O (stereo not given) | 162 to 164 °C
NNc1ncnc2nc[nH]c12 | 235 to 237 °C
O=C(COc1ccccc1)Nc1cc(Cl)ccc1C(=O)O | 247 to 249 °C
Sc1nc(-c2ccccc2)c[nH]1 | 262 to 264 °C
O=Cc1ccc(OCc2ccc(Cl)cc2)cc1 | 72 to 74 °C
O=C(O)Cc1csc(-c2ccc(Cl)cc2Cl)n1 | 159 to 161 °C
O=Cc1ccc(-c2cccs2)cc1F | 73 to 75 °C
Cc1ccoc1-c1nnc(CCl)o1 | 49 to 51 °C
CCCCOc1ccc2cc(C(=O)O)[nH]c2c1 | 173 to 175 °C
FC(F)Oc1cccc2cccnc12 | 64 to 66 °C
Nc1ccc(-c2nc3ccccc3o2)cc1 | 170 to 172 °C
COCc1ccccc1CNC(=O)CCl | 51 to 53 °C

Compound | melting point
CCOc1ccc(Oc2ccc(S(=O)(=O)Cl)cc2)cc1 | 88 to 90 °C
Nc1nc2cc3c(cc2s1)OCCCO3 | 218 to 220 °C
COc1nc(C)cc(Cl)n1 | 59 to 61 °C
O=C(O)c1ccc(COCC(F)(F)F)cc1 | 149 to 151 °C
CN(CCCNC(=O)CCl)S(C)(=O)=O | 79 to 81 °C
NC(=O)c1c(N)sc2c1CCCC2 | 153 to 155 °C
Nc1nc2cc(Cl)cc(Cl)c2o1 | 247 to 249 °C
Cc1nc(-c2ccc(Br)cc2)n[nH]1 | 190 to 192 °C
COc1ccccc1C(=O)/C=C1\NC(=O)CS1 | 173 to 175 °C
Cc1cc(Cl)c2cc([N+](=O)[O-])ccc2n1 | 140 to 142 °C
CC(=O)NCCc1ccc(C(C)=O)cc1 | 94 to 96 °C
NC(=O)c1ccc(S(N)(=O)=O)cc1 | 243 to 245 °C
O=C(O)C1CCN(S(=O)(=O)c2cc(F)ccc2F)CC1 | 149 to 151 °C
O=[N+]([O-])c1cnccc1S | 109 to 111 °C
O=C(O)c1ccc(S(=O)(=O)NC2CCS(=O)(=O)C2)cc1 (stereo not given) | 303 to 305 °C
Cc1ccc2c(C)c(CCC(=O)O)c(=O)oc2c1 | 161 to 163 °C
O=C(O)CC1CCOCC1 | 59 to 61 °C
Nc1cccc(-c2ccc(Cl)c(Cl)c2)c1 | 97 to 99 °C
COc1ccc(S(=O)(=O)Cl)c([N+](=O)[O-])c1 | 75 to 79 °C
COC(=O)c1csc(S(=O)(=O)Cl)c1 | 54 to 56 °C
CS(=O)(=O)c1ccc(OCC(=O)O)cc1 | 172 to 174 °C
O=C(NCc1ccncc1)c1ccc(O)c(Cl)c1 | 179 to 181 °C
COC(=O)c1cc(S(=O)(=O)Cl)ccc1O | 81 to 83 °C
CSC(=CC(=O)c1ccccc1)SC | 92 to 94 °C
NC(=O)c1ccccc1I | 183 to 185 °C

Compound | melting point
CC(Cl)C(=O)N1N=C(c2ccc(Cl)cc2)CC1c1ccco1 (stereo not given) | 141 to 143 °C
NCc1cccnc1N1CCOCC1 | 41 to 43 °C
CC(N)c1ccc(NC(=O)c2ccc(F)cc2)cc1 (stereo not given) | 110 to 112 °C
O=C(O)CCCc1ccc(Cl)cc1 | 58 to 60 °C
O=C(O)c1cnsn1 | 167 to 169 °C
COc1ccc(F)cc1C(=O)O | 87 to 91 °C
NS(=O)(=O)C1CCNC1 (stereo not given) | 115 to 117 °C
CCC(=O)Nc1cccc(CN)c1 | 56 to 58 °C
CCOC(=O)c1cc(C2CC2)nc2onc(C(C)C)c12 | 48 to 50 °C
CCC1(C)NC(=O)N(CC(=O)O)C1=O (stereo not given) | 156 to 158 °C
CC1(c2ccc(F)cc2Cl)NC(=O)NC1=O (stereo not given) | 214 to 216 °C
O=C(O)CCOc1cccc(Br)c1 | 60 to 69 °C
Cn1c(Cl)nc2ccccc2c1=O | 109 to 111 °C
CN(C)Cc1nnc(S)o1 | 202 to 204 °C
CCS(=O)(=O)NC1CCCNC1 (stereo not given) | 104 to 106 °C
CC(C)(C)OC(=O)Nc1cocn1 | 108 to 110 °C
Cc1n[nH]c(C)c1S(=O)(=O)Cl | 60 to 65 °C
NNc1cccc(F)c1F | 61 to 63 °C
Cc1cc(C=O)c(C)n1-c1ccc(Cl)c(C(F)(F)F)c1 | 88 to 90 °C
NC(=O)Cc1cc(Br)c(-c2ccc(N)cc2)s1 | 189 to 191 °C
Nc1nc2ccc(C(F)(F)F)cc2[nH]1 | 134 to 136 °C
CC(N)c1ccc(-n2cccn2)cc1 (stereo not given) | 48 to 50 °C
Cc1csc(NCCc2ccccc2)n1 | 80 to 82 °C
Cc1oc(-c2ccc(Cl)cc2)nc1C(=O)O | 235 to 237 °C
Fc1ccccc1-c1c[nH]c(C2CCCN2)n1 (stereo not given) | 111 to 113 °C

Compound | melting point
CCc1ccc(C(=O)CCl)s1 | 52 to 54 °C
COc1ccc(Cl)cc1NC(=O)CCN | 66 to 68 °C
CC(NC(=S)NN)C1CC1 (stereo not given) | 68 to 70 °C
CC(=O)c1ccc(S(C)=O)cc1 (stereo not given) | 105 to 107 °C
Nc1ccc(S(N)(=O)=O)c(F)c1 | 152 to 154 °C
CC(C)(C)C1CCCCC(=O)N1 (stereo not given) | 126 to 128 °C
Cc1nc2ccccc2c(=O)n1CC(=O)O | 239 to 241 °C
O=C1CSC(N2CCCCC2)=N1 | 76 to 80 °C
O=C(CCl)NCC(=O)c1ccccc1Br | 103 to 105 °C
COc1ccc(CNc2ccncc2)cc1 | 126 to 128 °C
CC(C)CCS(=O)(=O)CC(=O)O | 61 to 63 °C
O=c1[nH]c(CN2CCNCC2)nc2ccccc12 | 167 to 169 °C
Cc1ccc(C)c(Sc2ncccc2C(=O)O)c1 | 188 to 190 °C
N#Cc1ccc(-c2cnc(CCl)o2)cc1 | 124 to 126 °C
CC(N)C(=O)NO (stereo not given) | 159 to 161 °C
COC(=O)c1c[nH]c(=O)c([N+](=O)[O-])c1 | 214 to 216 °C
O=C(O)c1cccc(-c2noc(C3CC3)n2)c1 | 158 to 160 °C
Cc1cc(C)cc(N(CCC#N)C(=O)CCl)c1 | 67 to 69 °C
O=C(O)c1sc2cc(Cl)cc(Cl)c2c1Cl | 248 to 250 °C
Cc1ccc(SCCNC(=O)CCl)cc1 | 114 to 116 °C
O=C1NC(=O)C2(CCCN(Cc3ccccc3)C2)N1 (stereo not given) | 209 to 211 °C
COC(=O)c1ccc(-c2nc(C3CC3)no2)cc1 | 100 to 102 °C
COC(C)(C(=O)O)c1ccccc1 (stereo not given) | 44 to 46 °C
O=c1c2c([nH]c3ccc(Oc4ccccc4)cc13)CCCC2 | 319 to 321 °C
Cc1cc(C)c(Nc2nnc(S)s2)c(Cl)c1 | 198 to 200 °C

Compound | melting point
COc1ccc(-c2csc(CC#N)n2)cc1 | 70 to 72 °C
NC(=O)C1CCNc2ccccc21 (stereo not given) | 119 to 121 °C
COc1cc(C(=O)O)cc(OC)c1OCC(N)=O | 249 to 253 °C
O=C(NCCc1cccs1)C1Cc2ccccc2CN1 (stereo not given) | 86 to 88 °C
Cc1cncc(C=CC(=O)O)c1 | 209 to 211 °C
Cc1ccc(-n2nnc(C(=O)O)c2C)cc1 | 184 to 186 °C
O=S(=O)(Cl)CCS(=O)(=O)c1ccccc1 | 172 to 174 °C
NC(=O)Cc1ccc(F)cc1 | 155 to 157 °C
O=S(=O)(Cl)c1csc(-c2ccc(F)cc2)n1 | 75 to 77 °C
CCCCOc1ccc(-c2nnc(CCl)o2)cc1 | 77 to 79 °C
Nc1ccc(S(=O)(=O)NC2CN3CCC2CC3)cc1 (stereo not given) | 168 to 170 °C
Cc1cccc(NC(=O)NCC(=O)O)c1 | 182 to 184 °C
Nc1ccc(F)cc1-n1cccc1 | 84 to 86 °C
Nc1nnc(C(F)(F)F)[nH]1 | 155 to 157 °C
N#CCn1c(CCl)nc2ccccc2c1=O | 143 to 145 °C
O=C(O)C1(c2ccc3c(c2)OCCO3)CCCC1 | 165 to 167 °C
Cc1nn(C)c2[nH]nc(N)c12 | 135 to 137 °C
Cc1sc2[nH]c(CCC(=O)O)nc(=O)c2c1C | 249 to 251 °C
Nc1ccccc1N1C(=O)CCC1=O | 231 to 233 °C
CSc1nn(C)c(N)c1C(N)=O | 173 to 175 °C
O=C(O)c1ccc(I)c(Cl)c1 | 218 to 220 °C
O=C(O)CNc1ncnc2ccccc12 | 219 to 221 °C
NNC(=O)C1CC1 | 92 to 94 °C
CC1(C)NC(=O)N(c2cccc(C#N)c2)C1=O | 159 to 161 °C
CCOC(=O)c1c(C)n(C2CCCCC2)c2ccc(O)cc12 | 247 to 249 °C

Compound | melting point
O=C(O)C1CCCCC1C(=O)N1CCc2ccccc21 (stereo not given) | 123 to 125 °C
Cc1cccnc1C(=O)NN | 76 to 78 °C
Cc1ccc(S(=O)(=O)Nc2ccc(Cl)cc2)cc1N | 104 to 106 °C
O=C(O)c1ccc2[nH]c(=O)oc2c1 | 307 to 309 °C
COC(=O)c1cc(-c2cccc(C(F)(F)F)c2)ccc1N | 72 to 74 °C
NC(=O)C1CCN(C(=O)CCl)CC1 | 136 to 138 °C
Cc1cc(=O)n2nc(CCl)sc2n1 | 183 to 185 °C
Nc1cnn(-c2nccs2)c1 | 89 to 91 °C
COC(=O)N1CCc2n[nH]c(=O)cc2C1 | 189 to 191 °C
Cn1cnc([N+](=O)[O-])c1Oc1ccc(Br)cc1 | 129 to 131 °C
Cc1ncc(Cl)c(C(=O)O)n1 | 130 to 132 °C
O=C(O)CCc1ccc(OC(F)F)cc1 | 61 to 63 °C
O=C(O)C1CCCN(C(=O)Nc2ccccc2)C1 (stereo not given) | 163 to 165 °C
O=C1NC(=O)C2(CCCc3ccccc32)N1 (stereo not given) | 203 to 205 °C
CC(=O)Nc1cccc(CCl)c1 | 83 to 85 °C
O=C(O)c1cc(COc2c(Cl)cccc2Cl)on1 | 159 to 161 °C
CC(C)Oc1cnc(C(=O)O)cn1 | 109 to 111 °C
CCCCNc1ccc(S(N)(=O)=O)cc1N | 130 to 132 °C
COc1cc(C(C)=O)cc(O)c1OC | 59 to 61 °C
Cc1[nH]c(-c2ccccn2)nc(=NN)c1C | 182 to 184 °C
